Source: paper PMC10819767, “An ADAM10 Exosite Inhibitor Is Efficacious in an In Vivo Collagen-Induced Arthritis Model” (Pharmaceuticals, 2024)
“Also recorded” adds a separate entry of the source. Read-outs that look alike come from different tables or passages of the source.

Legend:
OPRM1 = tested on: OPRM1; parameters: method as in PMID 34817776; conditions: cited from earlier work
caspase 8 = tested on: caspase 8; parameters: method as in PubChem database; conditions: ref PubChem database; cited from earlier work
PBMCs and neutrophils = tested on: PBMCs and neutrophils; parameters: method as in PMID 28442704; conditions: cited from earlier work
[1] = tested on: articular joints affected by RA; test: Histopathology (H & E) of arthritic joint, CIA mice; format: in vivo, C57 BL/6 mice
Protocol: The sample size for therapeutic evaluation was calculated using power analysis based on experimental data from similar studies. In a two-sided test and setting the α value at 0.05 and desired power at 0.95, the sample size turned out to be 5 per group. We also expected deaths during the experiments; therefore, we used the formula Nt = N/1-q, where Nt is the number of mice initially used, N is the number required at the end of the study, and q is the proportion of attrition, which is generally 10%. Thus, at the end of the study period, we expected to have data from at least […] per group, which is enough to attain statistical significance if it exists. Data were analyzed using a one-way ANOVA followed by Dunnett’s test compared with the vehicle control. At the end of the study, the mice were anesthetized and sacrificed using CO2 euthanasia. The hind paws of the mice were subjected to a histopathological examination, and the serum was analyzed for CRP, TNF-α, IL-6, and IL-10, as described in the below sections. Histology. Limbs from euthanized animals were preserved in buffered formalin, decalcified, embedded, sectioned, and stained with hematoxylin and eosin (H & E). Microscopic images were acquired using the Lx 400 microscope (Labomed, Fremont, CA, USA).

muscarinic (CHRM1) = tested on: muscarinic (CHRM1); parameters: method as in PMID 34817776; conditions: cited from earlier work
[2] = tested on: collagen-induced arthritis (CIA) model; test: CIA mouse model: clinical arthritis score and paw swelling; format: in vivo, C57 BL/6 mice; conditions: 10, 30, 50 mg/kg/day; days 1, 14, 21, 28
[3] = Body weight and clinical signs of distress during CIA study; format: in vivo; conditions: 10, 30, 50 mg/kg oral for 28 days
From the text: Mice were weighed and observed every day, and notes were made on the signs of distress.

[4] = Pharmacokinetics in plasma and synovial fluid after oral gavage; format: in vivo, Sprague Dawley male rats; conditions: rat; for Cmax / AUC(0-inf) / AUC(0-t) / Tmax: male, Sprague Dawley; for Cmax: po, 10 mg/kg
Protocol: Pharmacokinetics of CID 3117694 in Sprague Dawley male rats. The CID 3117694 structure was confirmed using H1 NMR (Figure S1), and it was determined to be >95% pure via HPLC (Figure S2). To determine if CID 3117694 can be used in in vivo RA efficacy model studies, we conducted an in vivo pharmacokinetic (PK) study. CID 3117694 was formulated in 10% DMSO, 40% PEG400, 30% PG, and 20% H2O at 2 mg/mL and administered via oral gavage to Sprague Dawley male rats at 10 mg/kg. Blood and synovial fluid were collected at 15 min, 30 min, 1, 2, 4, 8, and 24 h and quantitated using LC/MS. PK parameters were calculated using WinNonLin 8.3.4 software.
Pharmacokinetics of CID 3117694. All animal studies were conducted in accordance with NSU IACUC guidelines. Study protocol #2021.04.DM2 was approved using NSU IACUC before the commencement of the studies. CID 3117694 was formulated in 10% DMSO, 40% PEG400, 30% PG, and 20% H2O at 2 mg/mL and administered via an intragastric (ig) gavage to six Sprague Dawley male rats at 10 mg/kg. The animals were anesthetized using isoflurane. Blood and synovial fluid were collected at 15 min, 30 min, 1 h, 2 h, 4 h, 8 h, and 24 h after the administration of CID 3117694. Synovial fluid (SF) was collected using a 23-gauge needle connected to a mini peristaltic pump via perfusion tubing. Sterile saline was infused at a constant rate of 100 μL/min^−1. After the infusion of 100 μL of the vehicle (sterile saline), the outflow tubing was connected to the 25-gauge needle to minimize pressure build-up within the joint space. The fluid was infused and withdrawn at a constant rate until a 250 μL basal sample was collected in a 1.5 mL centrifuge tube. Samples were immediately frozen at −20 °C. Blood was collected using a 25 G needle directly from the heart. The samples were prepared for LC-MS/MS analysis using the acetonitrile protein precipitation technique. Briefly, blank plasma and subject samples (plasma and SF samples) were retrieved from the deep freezer and allowed to thaw. The calibration curve standards (10 to 10,000 μg/mL of CID 3117694) and quality control samples were prepared using blank plasma. The thawed samples were vortexed to ensure the complete mixing of the contents. A total of 50 µL of each sample was transferred to the vials, and 200 µL of an Internal Standard (IS, telmisartan) mixed with acetonitrile was added to all the samples and vortexed. Samples were kept on the shaker for 5 min to ensure complete mixing of contents. The samples were centrifuged at 4000 rpm and 20 °C for 10 min, and the supernatant was transferred into auto-injector vials and loaded into the auto-sampler. A total of 5 µL was injected onto the API-4500 Q TRAP LC-MS/MS system. The samples were separated on a Phenomenex, Synergi C18 4.6 mm × 50 mm, 4 µm HPLC column using a 10 mM ammonium acetate + 0.1% Formic acid buffer as solvent A and 100% Acetonitrile as solvent B. PK parameters were quantitated using WinNonLin (Certara, Princeton, NJ, USA).

multiple cell lines = tested on: multiple cell lines; parameters: method as in PubChem Assay IDs 1794763-1794787, 19, 20; conditions: 10 µM and up to 100 µM in some cases; ref PubChem Assay IDs 1794763-1794787, 19, 20; cited from earlier work
[5] = synovial fluid, 10 mg/kg oral gavage

COc1cccc(C(=O)NNC(=O)C(=O)Nc2ccc(C)c(Cl)c2)c1 [CID 3117694]
activity against OPRM1 (OPRM1): inactive
effect on caspase 8 activity (caspase 8): does not affect
recruitment of PBMCs and neutrophils (PBMCs and neutrophils): can inhibit
histopathological findings (in words) ([1]; 10 mg/kg/day): did not have a pronounced effect on RA markers
histopathological findings (in words) ([1]; 30 mg/kg/day): reduced erosion but not the rest of the symptoms
histopathological findings (in words) ([1]; 50 mg/kg/day): significant reduction in RA hallmarks in most samples; also recorded: healthy bone and cartilage similar to the healthy controls
activity against CHRM1 (muscarinic (CHRM1)): inactive
paw swelling (in words) [2]: time- and dose-dependently decrease paw swelling
body weight vs vehicle control [3]: no significant differences in body weight
clinical signs of distress [3]: no clinical signs of distress
Cmax ([4]; plasma, plasma, 10 mg/kg oral gavage, read-out: Cmax): 6640 ng/mL
Cmax ([4]; plasma, plasma, 10 mg/kg oral gavage, read-out: Cmax, Concentration Plasma): 18.4 µM
Cmax ([4]; plasma, plasma, 10 mg/kg oral, read-out: Cmax in plasma): 18.4 µM
Cmax ([4]; synovial fluid, synovial fluid (SF), 10 mg/kg oral gavage, read-out: Cmax): 307 ng/mL
Cmax ([4]; synovial fluid, synovial fluid, 10 mg/kg oral gavage, read-out: Cmax, Concentration SF): 0.849 µM
Cmax ([4]; synovial fluid, synovial fluid, 10 mg/kg oral, read-out: Cmax in SF): 0.849 µM
AUC(0-inf) ([4]; plasma, 10 mg/kg oral gavage): 173000 ng·h/mL
AUC(0-t) ([4]; plasma, 10 mg/kg oral gavage): 33100 ng·h/mL
Tmax ([4]; plasma, 10 mg/kg oral gavage): 1 h
AUC(0-inf) [4, 5]: 1120 ng·h/mL
AUC(0-t) [4, 5]: 1100 ng·h/mL
Tmax [4, 5]: 1 h
concentration at the 24 h time point ([4]; 10 mg/kg ig gavage, 24 h): below the limit of quantitation (LOQ)
oral bioavailability (in words) ([4]; 10 mg/kg oral): orally bioavailable
time present in the blood at a steady-state concentration ([4]; 10 mg/kg oral): at least 8 h
effect on cellular viability (multiple cell lines): no effect
